{
  "source": "patent US20200368234A1",
  "about": "“PHOTORECEPTOR GENE MODULATOR PHOTOREGULIN 3 FOR TREATMENT OF RETINAL DISEASE” (University of Washington, priority 2017, published 2020)",
  "key": {"[1]": {"test_system": "rod photoreceptor genes", "experiment": "RNA sequencing of retinas of wild type mice after intraperitoneal PR3", "format": "in vivo", "settings": "10 mg/kg i.p. at P12, retinas collected 24 h later", "method": "Nr2e3 signaling is important for rod photoreceptor cell fate, development and maturation, and maintenance of expression. To determine the effect of PR3 treatment on gene expression in postmitotic retinal cells, wild type mice were systemically treated (intraperitoneal injection) with PR3 or vehicle at P12. At P13, 24 h after the injection, the retinas were collected for global transcriptome analysis by RNA sequencing.\nPhotoregulin3 was identified by searching previous small molecule screens with SciFinder and PubChem for Nr2e3 interacting molecules. It was initially obtained from ChemDiv and then synthesized and purified in large quantities in the lab after initial screening. For in vivo experiments, mice were injected intraperitoneally with PR3 dissolved in DMSO at 10 mg/kg.\nRNA from retinas was isolated using TRIzol (Invitrogen) and total RNA integrity was checking using an Agilent 4200 TapeStation and quantified using a Trinean DropSense96 spectrophotometer. RNA-seq libraries were prepared from total RNA using the TruSeq RNA Sample Prep kit (Illumina) and a Sciclone NGSx Workstation (PerkinElmer). Library size distributions were validated using an Agilent 4200 TapeStation. Additional Library quality control, blending of pooled indexed libraries, and cluster optimization were performed using Life Technologies' Invitrogen Qubit Fluorometer. RNA-seq libraries were pooled (4-plex) and clustered onto a flow cell lane. Sequencing was performed using an Illumina HiSeq 2500 in rapid mode employing a paired-end, 50 base read length (PE50) sequencing strategy."}, "[2]": {"target": "T1, Nr2e3 (Homo sapiens, UniProt Q9Y5X4)", "T1 construct": "Nr2e3 protein (aa 90-410) was expressed; His8 (N, cleaved yes); MBP (N, cleaved yes); host or cells: E. coli BL21 (DE3)", "T1 sequence (Q9Y5X4 90-410)": "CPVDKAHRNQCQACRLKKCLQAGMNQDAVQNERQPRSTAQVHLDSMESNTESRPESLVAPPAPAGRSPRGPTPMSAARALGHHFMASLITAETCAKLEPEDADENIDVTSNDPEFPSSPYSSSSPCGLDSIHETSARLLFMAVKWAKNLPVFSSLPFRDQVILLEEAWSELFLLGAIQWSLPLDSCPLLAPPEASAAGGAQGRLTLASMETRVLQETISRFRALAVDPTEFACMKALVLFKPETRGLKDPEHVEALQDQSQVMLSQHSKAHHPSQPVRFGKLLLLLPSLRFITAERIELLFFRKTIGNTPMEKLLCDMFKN", "experiment": "Isothermal titration calorimetry (ITC) of PR3 binding to Nr2e3", "settings": "one site model, estimated", "method": "FIG. 1F illustrates an isothermal titration calorimetric (ITC) study of PR3 binding to Nr2e3. Nr2e3 protein was expressed as a fusion protein from the expression vector pVP16. The fusion protein was incubated with TEV overnight at 4° C. and then the His8-MBP tags were separated from Nr2e3 by ion exchange chromatography. For isothermal titration calorimetry, […] was injected into […] in a MicroCal ITC-200 (Malvern).\nTo confirm a direct Nr2e3-PR3 interaction, isothermal titration calorimetry (ITC) was used.\nNr2e3 protein (aa 90-410) was expressed as a His8-MBP-TEV fusion protein from the expression vector pVP16 (DNASU Plasmid ID: HsCD00084154). E. coli BL21 (DE3) cells were grown to an OD600 of 1, and then induced with 0.2 mM IPTG at 16° C. overnight. Cells were harvested, resuspended in extract buffer (20 mM Tris pH 8, 200 mM NaCl, 10% glycerol, 5 mM 2-mercaptoethanol, and saturated PMSF diluted 1:1,000), and then lysed by sonication on ice. Lysates were centrifuged at 4° C. and the supernatant was loaded onto an equilibrated column containing 5 mL of Ni-NTA agarose (Qiagen). […] For isothermal titration calorimetry, 100 μM PR3 was injected into 20 μM Nr2e3 in 10 mM sodium phosphate buffer pH 8 with 50 mM NaCl and 0.5% DMSO in a MicroCal ITC-200 (Malvern) and the data was analyzed with Origin 7.0 software."}, "[3]": {"test_system": "Rhodopsin", "experiment": "Rhodopsin mRNA expression (qPCR) in dissociated retinal cell cultures", "format": "cell-based", "settings": "P5 mouse dissociated retinal cultures, 2 days treatment, vs DMSO and PR1", "description": "In order to identify compounds that may target Nr2e3 a cheminformatic strategy was used to screen hit compounds previously identified to interact with recombinant Nr2e3 in transfected CHO-S cells in a luciferase-based assay (PubChem Assay IDs: 602229, 624378, 624394, and 651849). As a secondary screen for initial hits, dissociated primary retinal cell cultures were used and assayed Rhodopsin, because it is a well-defined target of Nr2e3 signaling and is expressed at high levels exclusively in rod photoreceptors. Retina were dissociated from postnatal day 5 (P5) mice and cultured them in media containing the small molecules. After treatment for 2 days, the cells were collected for qPCR analysis and quantified Rhodopsin expression. […] This finding was confirmed with an immunofluorescence assay to examine Rhodopsin protein expression in dissociated retinal cultures from P5 mice. […]\nRNA from retinas was isolated using TRIzol (Invitrogen) and cDNA was synthesized using the iScript cDNA synthesis kit (Bio-Rad). SSO Fast (Bio-Rad) was used for quantitative real-time PCR. For analysis, values were normalized to Gapdh (ΔCt) and ΔΔCt between DMSO and compound-treated samples was expressed as percent of DMSO treated controls (100*2^ΔΔCt). […]"}, "[4]": {"test_system": "Rhodopsin", "experiment": "Rhodopsin protein expression (immunofluorescence assay) in dissociated retinal cell cultures", "format": "cell-based", "settings": "P5 mouse dissociated retinal cultures, 2 days treatment, vs DMSO and PR1", "description": "In order to identify compounds that may target Nr2e3 a cheminformatic strategy was used to screen hit compounds previously identified to interact with recombinant Nr2e3 in transfected CHO-S cells in a luciferase-based assay (PubChem Assay IDs: 602229, 624378, 624394, and 651849). As a secondary screen for initial hits, dissociated primary retinal cell cultures were used and assayed Rhodopsin, because it is a well-defined target of Nr2e3 signaling and is expressed at high levels exclusively in rod photoreceptors. Retina were dissociated from postnatal day 5 (P5) mice and cultured them in media containing the small molecules. After treatment for 2 days, the cells were collected for qPCR analysis and quantified Rhodopsin expression. […] This finding was confirmed with an immunofluorescence assay to examine Rhodopsin protein expression in dissociated retinal cultures from P5 mice.\nRetinas were dissected from postnatal day 5 (P5) mice and dissociated by treatment with 0.5% Trypsin diluted in calcium- and magnesium-free HBSS from 10 minutes at 37° C. Trypsin was inactivated by adding an equal volume of FBS and cells were pelleted by centrifugation at 4° C. and resuspended in media (Neurobasal-A containing 1% FBS, 1% N2, 1% B27, 1% Pen/Strep, and 0.5% L-glutamine). For qPCR, cells were plated into 24-well tissue culture plates at a density of 1 retina/well (see qPCR section below). […]"}},
  "note": "Entries after “also recorded” stand apart in the source; their conditions may differ.",
  "data": [
    {"smiles": "COc1cc2nc(CN3CC=C(c4ccccc4)CC3)nc(O)c2cc1OC", "note": "[PR3]", "values": [
      {"measurement": "cone gene expression (RNA sequencing)", "setting": "[1]", "result": "large and global increases in cone gene expression were not observed"},
      {"measurement": "toxicity to retinal cells (cell death and cell stress genes, RNA sequencing)", "setting": "[1]", "result": "not toxic to retinal cells"},
      {"measurement": "rod photoreceptor gene expression (RNA sequencing)", "setting": "[1]; 10 mg/kg", "result": "robust reduction in rod photoreceptor genes; also recorded: decrease in most rod photoreceptor-specific transcripts"},
      {"measurement": "Kd", "setting": "[2]", "result": "~67", "unit": "µM"},
      {"measurement": "Rhodopsin mRNA expression", "setting": "[3]", "result": "robust reduction in Rhodopsin compared to DMSO and PR1 treatment at all concentrations"},
      {"measurement": "Rhodopsin protein expression", "setting": "[4]", "result": "reduced expression of Rhodopsin compared to DMSO vehicle and PR1"}
    ]}
  ]
}
